Data reported in US7790765B2, “Hydroxy sulfonate of quinone compounds and their uses” (ArQule, Inc., priority 2007, dated 2010).

Columns and labels:
human cancer cell lines = conditions: single agent, typical range, read-out: antineoplastic activity (IC50); cited from earlier work
[1] = test system: normal or proliferating human PBMC; conditions: cited from earlier work
[2] = maximum concentrations of β-lapachone converted to Compound 1 at different pHs; type: physicochemical
[3] = equilibrium solubility of β-lapachone with bisulfites, HPLC; type: physicochemical; conditions: 3-15 mg/mL sodium metabisulfite or sodium bisulfite in water or 2.5-5% HPβCD; shaken 24 hours
Description: Solutions of bisulfites at different concentrations were prepared in water or 2.5% HPβCD and an excess amount of β-lapachone was added to obtain a saturated solution. These solutions were shaken for 24 hours, filtered through a 0.45 μm filter, and analyzed for β-lapachone concentration by HPLC. The equilibrium solubility results, in the presence and absence of HPβCD, are illustrated in FIGS. 1A to 1C. Bisulfite can enhance the equilibrium solubility of β-lapachone depending on the concentration of the bisulfites. […] The solubility of the β-lapachone is directly proportional with the amounts of bisulfites added, until they reach respective saturation concentrations (See FIG. 1C).

[4] = Excerpt: Methyl beta-cyclodextrin (MeβCD) is a derivative of beta-cyclodextrin with 1-7 methyl substituents on the secondary O-2 positions.
HPβCD with two different degrees of substitutions, 6.9 and 4.3, were compared in terms of β-lapachone solubility.

[5] = reversion of Compound 1 to β-lapachone in human plasma (UV-vis); type: in vitro ADME; conditions: diluted human plasma
Excerpt: Thus, compound 1 also reverts back to β-lapachone under the conditions of high pH or when mixed with plasma.

[6] = reversion of Compound 1 to β-lapachone in dilute or buffered solution (UV-vis, HPLC); type: physicochemical
Excerpt: Thus, compound 1 also reverts back to β-lapachone under the conditions of high pH or when mixed with plasma. The hydroxy sulfonate of β-lapachone easily reverts back to β-lapachone in dilute solutions of bisulfite and other reagents. […] However, the mass by LC/MS for Compound 1 can be obtained using a short LC method where the acetonitrile/water mobile phase is acidified with 0.1% formic acid. Even under these conditions, two peaks are observed, one peak corresponding to Compound 1, and one to the β-lapachone released from the complex.

CC1(C)CCC2=C(O1)c1ccccc1C(=O)C2=O [β-lapachone, 3,4-dihydro-2,2-dimethyl-2H-naphtho[1,2-b]pyran-5,6-dione]
IC50 (human cancer cell lines): 1 to 10 µM
cytotoxic effects [1]: No cytotoxic effects were observed
Converted β-lapachone Conc. ([2]; Na2S2O5 5 mg/mL, pH of the formulation 3.01): 5.90 mg/mL
Converted β-lapachone Conc. ([2]; Na2S2O5 5 mg/mL, pH of the formulation 4.46): 5.76 mg/mL
Converted β-lapachone Conc. ([2]; Na2S2O5 5 mg/mL, pH of the formulation 7.04): 1.88 mg/mL
Converted β-lapachone Conc. ([2]; NaHSO3 5 mg/mL, pH of the formulation 3.29): 5.76 mg/mL
Converted β-lapachone Conc. ([2]; NaHSO3 5 mg/mL, pH of the formulation 4.52): 5.97 mg/mL
Converted β-lapachone Conc. ([2]; NaHSO3 5 mg/mL, pH of the formulation 7.04): 2.23 mg/mL
equilibrium solubility in aqueous solution [3]: dramatically improve the solubility
higher solubilizing effect of HPβCD of lower degree of substitution on β-lapachone solubility [4]: 16-17%

CC1(C)CCC2=C(O1)c1ccccc1C(O)(S(=O)(=O)[O-])C2=O.[Na+] (stereo not drawn) [Compound 1, Sodium 6-hydroxy-2,2-dimethyl-5-oxo-3,4,5,6-tetrahydro-2H-benzo(h)chromene-6-sulfonate]
stability in human plasma: reversion to β-lapachone ([5]; pH 7): UV-vis spectrum become identical to that for a solution of β-lapachone
stability in human plasma: reversion to β-lapachone ([5]; pH 7, listed as compound 1): the only species present is β-lapachone
stability: reversion to β-lapachone ([6]; diluted in phosphate buffered saline at pH 7, UV-vis): UV-vis spectrum become identical to that for a solution of β-lapachone
stability: reversion to β-lapachone ([6]; diluted with mobile phase of acetonitrile and phosphate buffer pH 6.8, HPLC): only the β-lapachone can be detected
stability: reversion to β-lapachone ([6]; dilution to 20-100 μM or less, or pH increased to 6-7 or higher in combination with dilution, UV-vis): converts Compound 1 back to β-lapachone
